IC50 data for 23 compounds are collected here from patent US10759783B2, “Biaryl inhibitors of Bruton'S tyrosine kinase” (BIOGEN MA INC., priority 2013, dated 2020).

The target in the assay is T1, BTK enzyme (Homo sapiens, UniProt Q06187).
T1 construct: purchased Upstate 14-552
T1 sequence (Q06187 whole entry): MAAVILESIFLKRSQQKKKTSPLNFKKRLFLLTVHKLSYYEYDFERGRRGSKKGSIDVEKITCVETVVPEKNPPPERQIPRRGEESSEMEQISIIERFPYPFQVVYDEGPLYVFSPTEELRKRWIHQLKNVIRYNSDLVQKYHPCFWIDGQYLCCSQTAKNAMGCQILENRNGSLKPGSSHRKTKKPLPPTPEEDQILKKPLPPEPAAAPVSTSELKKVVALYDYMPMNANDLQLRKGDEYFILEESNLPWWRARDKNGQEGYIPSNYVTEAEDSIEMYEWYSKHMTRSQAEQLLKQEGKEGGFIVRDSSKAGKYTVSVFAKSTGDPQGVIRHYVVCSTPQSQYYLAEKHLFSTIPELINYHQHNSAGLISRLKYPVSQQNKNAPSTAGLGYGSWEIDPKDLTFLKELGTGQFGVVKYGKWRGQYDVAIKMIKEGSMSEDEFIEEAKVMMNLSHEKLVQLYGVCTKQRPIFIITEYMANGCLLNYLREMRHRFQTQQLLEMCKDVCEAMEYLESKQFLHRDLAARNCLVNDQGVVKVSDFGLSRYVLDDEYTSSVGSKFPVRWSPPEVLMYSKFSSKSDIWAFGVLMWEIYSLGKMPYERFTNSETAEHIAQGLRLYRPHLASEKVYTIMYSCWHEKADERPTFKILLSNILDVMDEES
The assay can be described thus: In vitro BTK kinase assay: BTK-POLYGAT-LS assay. It counts as biochemical. The following applies: ATP 10 μM, read-out: IC50 (10uMATP). The procedure: The purpose of the BTK in vitro assay is to determine compound potency against BTK through the measurement of IC50. […] For a typical assay, a 24 μL aliquot of a ATP/peptide master mix (final concentration; ATP 10 μM, polyGAT 100 nM) in kinase buffer (10 mM Tris-HCl pH 7.5, 10 mM MgCl2, 200 μM Na3PO4, 5 mM DTT, 0.01% Triton X-100, and 0.2 mg/ml casein) is added to each well. […] The assay is incubated for 30 minutes before being stopped with 28 μL of a 50 mM EDTA solution. […] The plate is covered and incubated for 45 minutes at room temperature.
Take `Cc1cc(-c2ccnc(Nc3ccccn3)n2)ccc1CNC(=O)c1cnc(C(C)(C)C)s1` [Example I-60, 2-(tert-butyl)-N-(2-methyl-4-(2-(pyridin-2-ylamino)pyrimidin-4-yl)benzyl)thiazole-5-carboxamide]: the IC50 was in the range of 10 to 99 nM. Then `Cc1cc(-c2ccnc(NC(=O)C3CCN(C)CC3)c2)ccc1CNC(=O)c1cnc(C(C)(C)C)s1` [Example I-71, 2-(tert-butyl)-N-(2-methyl-4-(2-(1-methylpiperidine-4-carboxamido)pyridin-4-yl)benzyl)thiazole-5-carboxamide], with 10 to 99 nM; and `Cc1cc(-c2ccnc(N)n2)ccc1CNC(=O)c1cnc(C2CCCO2)s1` (centres unmarked) [Example I-88, N-(4-(2-aminopyrimidin-4-yl)-2-methylbenzyl)-2-(tetrahydrofuran-2-yl)thiazole-5-carboxamide], with 100 to 999 nM.

As to `Cc1cc(-c2cc(Nc3ccn(CCO)n3)ncn2)ccc1CNC(=O)c1cnc(C(C)(C)C)s1` [Example I-151, 2-(tert-butyl)-N-(4-(6-((1-(2-hydroxyethyl)-1H-pyrazol-3-yl)amino)pyrimidin-4-yl)-2-methylbenzyl)thiazole-5-carboxamide], the IC50 is below 10 nM. As for `Cc1cc(-c2ccnc(Nc3cnn(C)c3)n2)ccc1CNC(=O)NC12CCC(CC1)CC2` [Example I-22, 1-(bicyclo[2.2.2]octan-1-yl)-3-(2-methyl-4-(2-((1-methyl-1H-pyrazol-4-yl)amino)pyrimidin-4-yl)benzyl)urea], the IC50 lay in the range of 10 to 99 nM.

Turning to `Cc1cc(-c2ccnc(N)n2)ccc1CNC(=O)C1CC2CNCC2C1` (centres unmarked) [Example I-81, N-(4-(2-aminopyrimidin-4-yl)-2-methylbenzyl)octahydrocyclopenta[c]pyrrole-5-carboxamide], the IC50 is 1000 to 10000 nM.

Take `CC(C)(C)c1ncc(C(=O)NC2CCCc3cc(-c4cc(Nc5cn[nH]c5)ncn4)ccc32)s1` (centres unmarked) [Example I-93, N-(6-(6-((1H-pyrazol-4-yl)amino)pyrimidin-4-yl)-1,2,3,4-tetrahydronaphthalen-1-yl)-2-(tert-butyl)thiazole-5-carboxamide]: the 50% inhibitory concentration (IC50) was in the range of 10 to 99 nM. Then `Cc1cc(-c2ccnc(NCC3CCS(=O)(=O)CC3)n2)ccc1CNC(=O)c1cnc(C(C)(C)C)s1` [Example I-31, 2-(tert-butyl)-N-(4-(2-(((1,1-dioxidotetrahydro-2H-thiopyran-4-yl)methyl)amino)pyrimidin-4-yl)-2-methylbenzyl)thiazole-5-carboxamide], with 100 to 999 nM. Then `Cc1cc(-c2ccnc(N)n2)ccc1CNC(=O)c1cnc(C(C)C)s1` [Example I-86, N-(4-(2-aminopyrimidin-4-yl)-2-methylbenzyl)-2-isopropylthiazole-5-carboxamide], with 10 to 99 nM; and `Cc1cc(-c2ccnc(N)n2)ccc1CNC(=O)c1cc2c(s1)CCN(C)C2` [Example I-141, N-(4-(2-aminopyrimidin-4-yl)-2-methylbenzyl)-5-methyl-4,5,6,7-tetrahydrothieno[3,2-c]pyridine-2-carboxamide], with 100 to 999 nM. With `Cc1cc(-c2ccnc(Nc3cnn(C)c3)n2)ccc1CNC(=O)c1ccn(C)c1` [Example I-155, 1-Methyl-N-(2-methyl-4-(2-((1-methyl-1H-pyrazol-4-yl)amino)pyrimidin-4-yl)benzyl)-1H-pyrrole-3-carboxamide], the IC50 fell in the range of 10 to 99 nM.

As to `Cc1cc(-c2ccnc(Nc3c(C)nn(C)c3C)n2)ccc1CNC(=O)c1cnc(C(C)(C)C)s1` [Example I-53, 2-(tert-butyl)-N-(2-methyl-4-(2-((1,3,5-trimethyl-1H-pyrazol-4-yl)amino)pyrimidin-4-yl)benzyl)thiazole-5-carboxamide], the half-maximal inhibitory concentration (IC50) fell in the range of 100 to 999 nM. For the compound `Cc1cc(-c2ccnc(NC(C)C)n2)ccc1CNC(=O)c1cnc(C(C)(C)C)s1` [Example I-35, 2-(tert-butyl)-N-(4-(2-(isopropylamino)pyrimidin-4-yl)-2-methylbenzyl)thiazole-5-carboxamide], the IC50 lay within 1000 to 10000 nM. On to `Cc1cc(-c2cc(Nc3cc4n(n3)CCCNC4)ncn2)ccc1CNC(=O)c1cnc(C(C)(C)C)s1` [Example I-148, 2-(tert-butyl)-N-(2-methyl-4-(6-((5,6,7,8-tetrahydro-4H-pyrazolo[1,5-a][1,4]diazepin-2-yl)amino)pyrimidin-4-yl)benzyl)thiazole-5-carboxamide], for which the IC50 is below 10 nM. Then `Cc1cc(-c2ccnc(N)n2)ccc1CNC(=O)[C@@H]1CC[C@@H]2CNCCN2C1` [Example I-79, (7R,9aR)—N-(4-(2-aminopyrimidin-4-yl)-2-methylbenzyl)octahydro-1H-pyrido[1,2-a]pyrazine-7-carboxamide], with 1000 to 10000 nM; and `Cc1cc(-c2ccnc(N[C@H](C)C3CCCCC3)n2)ccc1CNC(=O)c1cnc(C(C)(C)C)s1` [Example I-27, (R)-2-(tert-butyl)-N-(4-(2-((1-cyclohexylethyl)amino)pyrimidin-4-yl)-2-methylbenzyl)thiazole-5-carboxamide], with above 10000 nM. For `Cc1nc(-c2ccnc(Nc3cnn(C)c3)n2)ccc1CNC(=O)c1cc2c(s1)CCOC2` [Example I-104, N-((2-methyl-6-(2-((1-methyl-1H-pyrazol-4-yl)amino)pyrimidin-4-yl)pyridin-3-yl)methyl)-6,7-dihydro-4H-thieno[3,2-c]pyran-2-carboxamide], the IC50 lay in the range of 100 to 999 nM. On to `Cc1cc(-c2ccnc(Nc3cnn(C)c3)n2)ccc1CNC(=O)c1cc(C(C)(C)C)on1` [Example I-153, 5-(tert-butyl)-N-(2-methyl-4-(2-((1-methyl-1H-pyrazol-4-yl)amino)pyrimidin-4-yl)benzyl)isoxazole-3-carboxamide], for which the IC50 was below 10 nM.

On to `Cc1cc(-c2ccnc(N)n2)ccc1CNC(=O)c1cc2c(s1)CCS(=O)(=O)C2` [Example I-138, N-(4-(2-aminopyrimidin-4-yl)-2-methylbenzyl)-6,7-dihydro-4H-thieno[3,2-c]thiopyran-2-carboxamide 5,5-dioxide], for which the IC50 was 1000 to 10000 nM. Next, `Cc1cc(-c2ccnc(N)n2)ccc1CNC(=O)c1ccc2c(n1)CCNC2` [Example I-78, N-(4-(2-aminopyrimidin-4-yl)-2-methylbenzyl)-5,6,7,8-tetrahydro-1,6-naphthyridine-2-carboxamide]: above 10000 nM. Next, `Cc1cc(-c2cc(Nc3cc4n(n3)CCN(C)C4)ncn2)ccc1CNC(=O)c1cnn(C(C)(C)C)c1` [Example I-150, 1-(tert-butyl)-N-(2-methyl-4-(6-((5-methyl-4,5,6,7-tetrahydropyrazolo[1,5-a]pyrazin-2-yl)amino)pyrimidin-4-yl)benzyl)-1H-pyrazole-4-carboxamide]: below 10 nM; `Cn1cc(Nc2nccc(-c3ccc4c(c3)CCC4NC(=O)c3cnc(C(C)(C)C)s3)n2)cn1` (centres unmarked) [Example I-90, 2-(tert-butyl)-N-(5-(2-((1-methyl-1H-pyrazol-4-yl)amino)pyrimidin-4-yl)-2,3-dihydro-1H-inden-1-yl)thiazole-5-carboxamide]: 10 to 99 nM; `Cc1nc(-c2ccnc(Nc3cnn(C)c3)c2)ccc1CNC(=O)c1cnc(C(C)(C)C)s1` [Example I-102, 2-(tert-butyl)-N-((6-methyl-2′-((1-methyl-1H-pyrazol-4-yl)amino)-[2,4′-bipyridin]-5-yl)methyl)thiazole-5-carboxamide]: 10 to 99 nM.

The term IC50 denotes the point on the concentration scale where inhibition reaches its midpoint.
